Source: PMC6349869, “The palladacycle complex AJ-5 induces apoptotic cell death while reducing autophagic flux in rhabdomyosarcoma cells” (Cell Death Discovery, 2019)

Legend:
[1] = tested on: HT1080 cells; experiment: MTT cell viability assay, HT1080 fibrosarcoma; type: cell-based, human; settings: 48 h
[2] = tested on: γH2AX, p-ATM, p-Chk2, p-p38, p21 in RH30 and RD cells; experiment: Western blotting and immunocytochemistry of DNA damage and stress pathway proteins; type: cell-based, human
Description: (§1) Cells were lysed at 4 °C in whole-cell lysis buffer (0.125 M Tris-HCl pH 6.8, 4% SDS, 0.2% glycerol, 0.1% β-mercaptoethanol and a pinch of bromophenol blue) and boiled for 10 min. Proteins were resolved by SDS-PAGE (6–15% gels) and transferred to Hybond ECL membranes (Amersham, UK). The membranes were incubated with primary antibodies: rabbit polyclonal antibodies to phospho-histone H2A.X (Ser139) (#2577), phospho-chk2 (Thr68) (#221), phospho-p38 MAPK (Thr180/Tyr182) (#9211), cleaved caspase-3 (Asp175) (#9661), PARP (#9542), caspase-9 (#9502), LC3B (#2775), p38 MAPK (#9212), rabbit monoclonal antibody to cleaved caspase-7 (Asp198) (D6H1) (#8438), mouse monoclonal antibodies to phospho-ATM (Ser1981) (D6H9) (#5883), Cyclin B1 (V152) (#4135), Caspase-8 (1C12) (#9746), SQSTM1/p62 (D5L7G) (#88588) from Cell Signaling Technology (Massachusetts, USA); mouse monoclonal antibody to p53 (DO-1) (sc-126), rabbit polyclonal antibodies to p21 (C-19) (sc-397), cyclin A (H-432) (sc-751), cyclin B1 (H-433)(sc-752), PARP-1 (H-250) (sc-7150) from Santa Cruz Biotechnology (Texas, USA); rabbit polyclonal antibody to p38 MAP kinase (M0800) from Sigma Aldrich. After primary antibody incubation, membranes were incubated with goat anti-rabbit or goat anti-mouse HRP-conjugated secondary antibodies (Bio-Rad Laboratories, California, USA). Antibody reactive proteins were visualized by enhanced chemiluminescence using SuperSignal West Pico Chemiluminescent Substrate Kit (Thermo Fisher Scientific) or WesternBright ECL HRP Substrate Kit (Advansta, California, USA). Densitometry readings were obtained using ImageJ v1.50i[58] and protein expression levels were represented as a ratio of protein of interest/p38 loading control normalized to the vehicletreated control sample where appropriate. All blots are representative of at least two independent repeats.
Cells were plated on glass coverslips and treated with IC50 AJ-5 or vehicle. […] For quantification, mean fluorescence was measured from at least 20 fields of view per treatment condition and pooled from three independent repeats.

[3] = tested on: caspase-3/7, caspase-8, caspase-9, PARP in RH30 and RD cells; experiment: Caspase-Glo assays and western blots of apoptosis markers; type: cell-based, human
Description: as §1
Cells were seeded and treated for 24 h with IC50 AJ-5, vehicle or 0.5 µM (IC50) doxorubicin which was included and as a positive control. […]

[4] = tested on: RD cells; experiment: Single-cell autophagosome flux analyses; type: cell-based, human; settings: IC50 48 h
Description: The autophagosome flux was calculated from the rate of autophagosome accumulation as previously described. Briefly, this was determined after the complete inhibition of fusion between autophagosomes and lysosomes using 400 nM bafilomycin A1 (B0025; LKT Laboratories Inc., Minnesota, USA).
Cells were transfected with a GFP-LC3 construct using Lipofectamine 3000 (L3000001; Thermo Fisher Scientific) according to the manufacturer’s instructions and maintained for 2 days in order to achieve high levels of GFP-LC3 expression.
Autophagosome, autolysosome and lysosome pool size was assessed by supplementing the culture media with 25 nM LysoTracker Red (L7528; Thermo Fisher Scientific) 2 h prior to image acquisition. An LSM 780 confocal with ELYRA S.1 Superresolution platform (Carl Zeiss) was used for image acquisition. The eight-chamber dish was placed in a heated chamber maintained at 5% CO2 that encased the microscope objective. An LCI Plan-Apochromat ×63/1.4 oil DIC M27 objective was used and samples were excited with an Argon multiline laser 25 mW at 488 and 514 nm with appropriate beam splitters and GaAsP detector 32+2 PMT. Multiple z layers were acquired with […] step width. Laser power and electron gain were set to achieve an optimal signal to noise ratio without causing photo-toxicity. […]

[5] = tested on: phosphorylated RIP3 and MLKL; experiment: Western blot of necroptosis markers (preliminary, data not shown); type: cell-based

## CC(C)c1cccc(C(C)C)c1[N+]1=Cc2cccc[c]2[Pd-2]1([Cl])[P+](CC[P+](c1ccccc1)(c1ccccc1)[Pd-2]1([Cl])[c]2ccccc2C=[N+]1c1c(C(C)C)cccc1C(C)C)(c1ccccc1)c1ccccc1 (stereo not shown) [AJ-5]
[1]
  IC50: < 300 nM
[2]; 0.1 µM or IC50, 24 and 48 h, western blotting
  γH2AX levels: dose-dependent increase
[2]; IC50 concentrations, pronounced after 24 h
  p21 levels: increased
[2]; western blotting
  Levels of phosphorylated ATM, CHK2 and p38: increased levels
[3]; RD cells, 24 h, IC50 AJ-5 vs 0.5 µM doxorubicin
  Activation of caspases-8 and -9 compared with IC50 doxorubicin: more robustly activated
[3]; RH30 and RD
  Active (cleaved) caspases-3/7 and cleaved PARP: increased levels
[3]; RH30 and RD, western blotting and Caspase-Glo
  Cleaved caspase-8 and caspase-9: increased levels and activity
[4]
  Autolysosome pool size and autophagosome flux J: significantly decreased
[5]
  Active (phosphorylated) MLKL: increased levels
  Phosphorylated RIP3: increase
